The record followed here is patent US20090209527A1, “Methods for Using Rapamycin Analogues in the Treatment of Neurological Disorders” (Wyeth, priority 2008, published 2009).

The test system of one assay is pMCAO in rats. Nature of the assay: Permanent occlusion of middle cerebral artery (pMCAO), Example 10, behavioral deficit scoring over 21 days. The format is in vivo, Wistar rats. Particulars: 10 mg/kg i.v. 1.5, 5.5, 24, 48 and 72 hours post ischemia. The protocol:
Administration of Compound of Example 2—10 mg/kg i.v. 1.5, 5.5, 24, 48, and 72 hours post ischemia.
Adult male Wistar rats (Charles River, Wilmington, Mass.) 270 g to 300 g were anesthetized with 3% isoflurane in 70% nitrous oxide and 30% oxygen through a nose cone. Temperature was maintained at 37° C. throughout the surgery using a heating lamp. Permanent occlusion of MCAO was induced by electro cauterization of the distal portion of the MCA (via a craniotomy) with a 90 minute ligation of both carotid arteries to interrupt collateral circulation (Chen S T, Hsu C Y, Hogan E L, Maricq H Balentine J D (1986) A model of focal ischemic stroke in the rat: reproducible extensive cortical infarction. Stroke 17:738-743). Compound was administered 10 mg/kg i.v. 1.5, 5.5, 24, 48, and 72 hours post ischemia. Rats were kept for 21 days for long-term functional recovery evaluation. […] Rats extending both forelimbs toward the table were scored as 0, flexing contralateral limb toward the body and/or rotating the contralateral shoulder and limb medially were scored as 1, and rolling up the body toward the contralateral side and attempting to grasp the tail were scored as 2. […] Rats retracting hind limb back on bench top immediately were scored as 0, delaying (>2 seconds) were scored as 1, and unable to retract hind limb were score as 2. […]

Assay [1] deals with Spinal cord neuron cultures. Briefly: Spinal cord neuron assay. The format is cell-based. The settings on record: Rattus norvegicus, 72 hours treatment, read-out: EC50 in spinal cord neuron assays. The protocol:
Spinal cord neuron cultures were prepared from embryonic day 15 (E15) rat embryos (Liu et al., Screening of Immunophilin Ligands by Quantitative Analysis of Neurofilament Expression and Neurite Outgrowth in Cultured Neurons and Cells, J. Neurosci. Methods, 2007 Jul. 30; 163(2):310-20). The embryos were collected and their spinal cords were removed in ice-cold phosphate-buffered saline (PBS) without Ca^2+ and Mg^2+. Dissected pieces of spinal cord tissue were pooled together and transferred to an enzymatic dissociation media containing 20 IU/mL papain in Earle's balanced salt solution (Worthington Biochemical, Freehold, N.J.) and incubated for 30 minutes at 37° C. After enzymatic dissociation, the papain solution was aspirated and the tissue mechanically triturated with a fire-polished Pasteur pipette in complete media [Neurobasal Medium with B-27 supplement (Gibco, Grand Island, N.Y.), 100 IU/mL penicillin, 100 µg/mL streptomycin, […] aphidicolin, 0.5 mM glutamate] containing 2,000 IU/mL DNase and 10 mg/mL ovomucoid protease inhibitor. Single-cell suspensions in complete media were plated on pre-coated poly-L-ornithine/laminin 96-well plates (Becton-Dickinson, Bedford, Mass.) at a density of 1.0×10^4 cells/well. Spinal cord neurons were maintained for 24 hours then exposed to vehicle or various concentrations of compound for 72 hours.

Molecules are shown by their SMILES.

Regarding `CO[C@H]1C[C@@H]2CC[C@@H](C)[C@@](O)(O2)C(=O)C(=O)N2CCCC[C@H]2C(=O)O[C@H]([C@H](C)C[C@@H]2CC[C@@H](O)[C@H](OC)C2)CC(=O)[C@H](C)/C=C(\C)[C@@H](O)[C@@H](OC)C(=O)[C@H](C)C[C@H](C)[C@@H]2CC[C@H](/C=C/1C)ON2c1ccccc1` [Example 2, 9,27-dihydroxy-3-{2-[4-hydroxy-3-methoxycyclohexyl]-1-methylethyl}-10,21-dimethoxy-6,8,12,14,20,26-hexamethyl-37-phenyl-4,9,10,12,13,14,15,16,17,18,21,22,23,24,25,26,27,32,33,34,34a-henicosahydro-3H-23,27-epoxy-18,15-(epoxyimino)pyrido[2,1-c][1,4]oxazacyclohentriacontine-1,5,11,28,29(6H,31H)-pentone], in the assay on pMCAO in rats, the “behavior deficit scoring (total score 0 to 12) following pMCAO” value was “statistically significant reduction of behavior deficit scoring”. Also, in assay [1], the EC50 was < 1000 nM.
